In ChEMBL document CHEMBL2216751, “PI3Kδ and PI3Kγ as targets for autoimmune and inflammatory diseases” (J Med Chem, 2012):

Key:
[1] = molecular target: T1, Phosphatidylinositol 4,5-bisphosphate 3-kinase catalytic subunit delta isoform (Homo sapiens, UniProt O00329)
T1 sequence (O00329 whole entry): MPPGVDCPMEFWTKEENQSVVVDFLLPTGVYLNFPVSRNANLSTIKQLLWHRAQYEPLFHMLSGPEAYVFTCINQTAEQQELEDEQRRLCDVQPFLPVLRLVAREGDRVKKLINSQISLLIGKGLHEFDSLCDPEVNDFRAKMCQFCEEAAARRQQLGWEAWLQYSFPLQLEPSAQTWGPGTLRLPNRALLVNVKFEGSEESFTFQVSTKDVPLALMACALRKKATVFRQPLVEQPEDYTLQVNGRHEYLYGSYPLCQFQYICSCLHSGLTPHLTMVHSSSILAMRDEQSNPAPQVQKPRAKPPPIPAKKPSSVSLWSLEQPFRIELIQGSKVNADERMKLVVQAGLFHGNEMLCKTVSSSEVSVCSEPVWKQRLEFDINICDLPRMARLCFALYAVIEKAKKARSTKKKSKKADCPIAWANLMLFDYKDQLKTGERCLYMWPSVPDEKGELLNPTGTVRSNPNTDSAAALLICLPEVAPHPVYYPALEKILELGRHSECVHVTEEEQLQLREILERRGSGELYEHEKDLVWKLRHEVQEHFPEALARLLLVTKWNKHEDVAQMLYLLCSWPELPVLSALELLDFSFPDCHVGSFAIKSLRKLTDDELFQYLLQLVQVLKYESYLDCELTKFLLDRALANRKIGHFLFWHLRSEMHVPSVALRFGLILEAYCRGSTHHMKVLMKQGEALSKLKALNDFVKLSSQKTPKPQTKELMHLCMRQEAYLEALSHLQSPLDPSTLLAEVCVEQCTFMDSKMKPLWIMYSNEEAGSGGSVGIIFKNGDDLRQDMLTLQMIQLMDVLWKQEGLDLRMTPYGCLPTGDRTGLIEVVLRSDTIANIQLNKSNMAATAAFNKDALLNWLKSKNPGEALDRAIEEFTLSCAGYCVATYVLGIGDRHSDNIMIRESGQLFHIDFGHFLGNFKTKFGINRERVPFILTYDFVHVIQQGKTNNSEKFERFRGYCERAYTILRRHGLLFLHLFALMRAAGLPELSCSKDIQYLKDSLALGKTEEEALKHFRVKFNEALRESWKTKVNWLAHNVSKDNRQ

[2] = molecular target: T1, Phosphatidylinositol 4,5-bisphosphate 3-kinase catalytic subunit delta isoform; assay: Inhibition of PI3Kdelta in human PBMC
[3] = molecular target: T2, Phosphatidylinositol 4,5-bisphosphate 3-kinase catalytic subunit gamma isoform (Homo sapiens, UniProt P48736); assay: Inhibition of PI3Kgamma-mediated Akt phosphorylation in T cells by flow cytometry; assay type: cell-based, T-cell
Target sequence in this assay (P48736 whole entry, canonical isoform): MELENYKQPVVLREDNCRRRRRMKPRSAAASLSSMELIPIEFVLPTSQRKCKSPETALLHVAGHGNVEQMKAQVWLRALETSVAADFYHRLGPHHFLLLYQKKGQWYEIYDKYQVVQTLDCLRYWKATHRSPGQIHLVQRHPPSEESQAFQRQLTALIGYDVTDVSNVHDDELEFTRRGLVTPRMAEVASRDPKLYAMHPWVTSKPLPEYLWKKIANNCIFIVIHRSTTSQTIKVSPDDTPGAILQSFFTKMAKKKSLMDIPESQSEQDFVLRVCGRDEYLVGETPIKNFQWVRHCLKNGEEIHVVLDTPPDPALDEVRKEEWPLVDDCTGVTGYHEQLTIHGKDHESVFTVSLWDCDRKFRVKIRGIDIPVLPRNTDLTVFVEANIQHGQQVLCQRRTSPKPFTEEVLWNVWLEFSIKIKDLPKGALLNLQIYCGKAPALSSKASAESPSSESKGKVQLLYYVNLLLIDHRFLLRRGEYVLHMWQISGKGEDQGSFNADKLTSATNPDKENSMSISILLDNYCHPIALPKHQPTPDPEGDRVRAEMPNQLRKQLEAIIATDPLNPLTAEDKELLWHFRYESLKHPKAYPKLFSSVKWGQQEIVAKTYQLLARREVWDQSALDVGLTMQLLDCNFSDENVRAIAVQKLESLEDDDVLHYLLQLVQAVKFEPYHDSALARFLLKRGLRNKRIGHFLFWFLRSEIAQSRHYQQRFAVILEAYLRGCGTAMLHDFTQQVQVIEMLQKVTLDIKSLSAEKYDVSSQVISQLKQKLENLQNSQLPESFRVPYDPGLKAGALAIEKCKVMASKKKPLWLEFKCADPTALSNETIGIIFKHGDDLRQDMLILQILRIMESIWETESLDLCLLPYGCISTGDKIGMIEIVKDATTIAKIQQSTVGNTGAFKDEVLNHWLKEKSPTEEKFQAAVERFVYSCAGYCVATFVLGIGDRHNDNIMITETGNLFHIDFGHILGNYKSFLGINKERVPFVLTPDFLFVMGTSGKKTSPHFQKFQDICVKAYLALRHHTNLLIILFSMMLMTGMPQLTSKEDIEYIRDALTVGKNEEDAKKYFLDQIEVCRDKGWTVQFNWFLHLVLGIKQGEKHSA

[4] = species: Homo sapiens; assay: Antitumor activity in Non-Hodgkin Lymphoma patient assessed as clinical response rate at 50 to 350 mg, bid; assay type: functional
[5] = tested on: Homo sapiens; assay: Toxicity in healthy human administered bid up to 7 days; assay type: organism-based; settings: in vivo, 168 h
[6] = species: Homo sapiens; assay: Toxicity in healthy human; assay type: organism-based; settings: in vivo
[7] = molecular target: Serine/threonine-protein kinase mTOR (Homo sapiens) (UniProt P42345); assay: Inhibition of mTOR
[8] = tested on: Mus musculus; assay: Antiinflammatory activity in LPS-induced COPD BALB/c mouse model assessed as reduction in pulmonary neutrophilia at 0.3 mg/kg, ip qd; assay type: functional; parameters: scale not given: the % may be the effect or the level left; settings: route intraperitoneal
[9] = Oral bioavailability in Han-Wistar rat; assay type: ADME, organism-based; settings: in vivo
[10] = molecular target: T1, Phosphatidylinositol 4,5-bisphosphate 3-kinase catalytic subunit delta isoform; assay: Inhibition of PI3Kdelta by cell-based assay
[11] = molecular target: Phosphatidylinositol 4,5-bisphosphate 3-kinase catalytic subunit beta isoform (Homo sapiens) (UniProt P42338); assay: Inhibition of PI3Kbeta at 1 uM
Sequence of Phosphatidylinositol 4,5-bisphosphate 3-kinase catalytic subunit beta isoform (Homo sapiens) (P42338 whole entry, looked up, canonical isoform): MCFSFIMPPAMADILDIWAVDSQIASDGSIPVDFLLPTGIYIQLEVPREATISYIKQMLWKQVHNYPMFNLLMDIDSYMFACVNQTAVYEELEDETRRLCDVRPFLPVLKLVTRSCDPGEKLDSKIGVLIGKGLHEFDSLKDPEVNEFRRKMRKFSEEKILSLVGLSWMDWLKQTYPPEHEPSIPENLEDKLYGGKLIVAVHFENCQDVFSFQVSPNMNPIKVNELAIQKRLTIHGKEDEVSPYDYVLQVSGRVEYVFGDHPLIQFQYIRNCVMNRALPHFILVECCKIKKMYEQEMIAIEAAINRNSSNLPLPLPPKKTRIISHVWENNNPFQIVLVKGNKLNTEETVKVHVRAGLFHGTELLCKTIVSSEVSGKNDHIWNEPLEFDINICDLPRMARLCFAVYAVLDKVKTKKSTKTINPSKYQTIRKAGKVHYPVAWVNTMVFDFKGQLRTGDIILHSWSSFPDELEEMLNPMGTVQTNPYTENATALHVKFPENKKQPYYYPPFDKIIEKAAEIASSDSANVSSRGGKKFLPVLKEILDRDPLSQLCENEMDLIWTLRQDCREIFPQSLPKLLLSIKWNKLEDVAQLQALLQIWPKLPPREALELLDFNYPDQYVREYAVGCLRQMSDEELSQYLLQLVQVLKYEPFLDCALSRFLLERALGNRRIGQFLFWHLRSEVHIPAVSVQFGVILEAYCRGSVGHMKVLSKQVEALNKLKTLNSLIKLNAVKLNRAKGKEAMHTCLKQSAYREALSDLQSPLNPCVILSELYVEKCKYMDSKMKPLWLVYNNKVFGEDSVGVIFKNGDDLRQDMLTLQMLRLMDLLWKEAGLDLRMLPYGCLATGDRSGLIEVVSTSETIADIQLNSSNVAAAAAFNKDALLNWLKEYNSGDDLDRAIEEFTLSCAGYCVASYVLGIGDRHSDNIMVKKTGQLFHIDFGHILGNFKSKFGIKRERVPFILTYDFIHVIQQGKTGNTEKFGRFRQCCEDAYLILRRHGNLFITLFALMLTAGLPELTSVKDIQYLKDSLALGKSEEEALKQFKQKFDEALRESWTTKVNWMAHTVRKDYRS

[12] = molecular target: T2, Phosphatidylinositol 4,5-bisphosphate 3-kinase catalytic subunit gamma isoform; assay: Inhibition of PI3Kgamma at 1 uM
Target sequence in this assay (P48736 whole entry, looked up, canonical isoform): as the sequence (P48736 whole entry, canonical isoform) above

[13] = molecular target: Phosphatidylinositol 4,5-bisphosphate 3-kinase catalytic subunit alpha isoform (Homo sapiens) (UniProt P42336); assay: Inhibition of PI3Kalpha at 1 uM
Sequence of Phosphatidylinositol 4,5-bisphosphate 3-kinase catalytic subunit alpha isoform (Homo sapiens) (P42336 whole entry, canonical isoform): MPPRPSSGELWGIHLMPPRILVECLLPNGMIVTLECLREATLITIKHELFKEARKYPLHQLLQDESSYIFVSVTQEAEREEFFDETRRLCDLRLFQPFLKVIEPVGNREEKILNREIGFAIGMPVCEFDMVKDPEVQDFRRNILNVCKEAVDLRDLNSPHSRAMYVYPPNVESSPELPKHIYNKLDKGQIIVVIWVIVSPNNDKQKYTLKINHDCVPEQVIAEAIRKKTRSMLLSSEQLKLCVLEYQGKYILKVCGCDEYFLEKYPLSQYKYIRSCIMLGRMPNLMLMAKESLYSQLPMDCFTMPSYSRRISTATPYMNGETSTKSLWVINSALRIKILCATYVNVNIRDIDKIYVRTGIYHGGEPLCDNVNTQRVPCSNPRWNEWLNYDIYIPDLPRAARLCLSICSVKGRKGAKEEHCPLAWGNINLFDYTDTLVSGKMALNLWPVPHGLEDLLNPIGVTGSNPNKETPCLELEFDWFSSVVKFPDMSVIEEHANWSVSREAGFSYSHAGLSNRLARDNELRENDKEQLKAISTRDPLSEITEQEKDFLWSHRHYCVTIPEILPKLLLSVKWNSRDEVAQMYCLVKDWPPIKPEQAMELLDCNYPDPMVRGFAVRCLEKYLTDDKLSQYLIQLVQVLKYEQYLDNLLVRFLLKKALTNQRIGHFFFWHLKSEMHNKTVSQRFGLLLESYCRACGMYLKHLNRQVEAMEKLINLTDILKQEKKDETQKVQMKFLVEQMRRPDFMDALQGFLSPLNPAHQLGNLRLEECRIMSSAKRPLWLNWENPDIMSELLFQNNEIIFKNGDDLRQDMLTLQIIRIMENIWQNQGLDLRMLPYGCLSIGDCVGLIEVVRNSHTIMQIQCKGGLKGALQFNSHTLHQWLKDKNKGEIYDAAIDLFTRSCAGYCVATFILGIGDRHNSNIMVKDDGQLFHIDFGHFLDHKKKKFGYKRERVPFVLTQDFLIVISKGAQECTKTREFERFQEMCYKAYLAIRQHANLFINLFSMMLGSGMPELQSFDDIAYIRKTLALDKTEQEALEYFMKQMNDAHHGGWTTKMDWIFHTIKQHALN

[14] = molecular target: T1, Phosphatidylinositol 4,5-bisphosphate 3-kinase catalytic subunit delta isoform; assay: Inhibition of PI3Kdelta in human whole blood assessed as inhibition of CD69 production in B lymphocyte by immunoassay
[15] = Clearance in Han-Wistar rat; assay type: ADME, organism-based; settings: in vivo
[16] = molecular target: T1, Phosphatidylinositol 4,5-bisphosphate 3-kinase catalytic subunit delta isoform; assay: Inhibition of PI3Kdelta in neutrophil assessed as inhibition of superoxide production by cell-based assay
[17] = molecular target: T1, Phosphatidylinositol 4,5-bisphosphate 3-kinase catalytic subunit delta isoform; assay: Inhibition of PI3Kdelta-mediated AKT phosphorylation in human Ramos cells by ELISA; assay type: cell-based
[18] = molecular target: T3, Phosphatidylinositol 4,5-bisphosphate 3-kinase catalytic subunit delta isoform (Homo sapiens) (UniProt O00329); assay: Inhibition of PI3Kdelta-mediated Akt phosphorylation at 10 uM by cell-based assay
T3 sequence (whole entry): T1 sequence (O00329 whole entry)

COc1ccccc1S(=O)(=O)Nc1cc(-c2cc(NC(=O)c3csc(CN4C[C@@H](C)O[C@@H](C)C4)n3)c3cn[nH]c3c2)cnc1OC
pIC50 [1]: >= 5
IC50 [2]: ≤ 10000 nM

CCN(CC)C(=O)c1cccc(Nc2nc3ccc(-c4cncc(OC)c4)cc3s2)n1
Ki [1]: 3 nM

Cc1cccc2cc(C(C)Nc3ncnc4[nH]cnc34)nc(OC3CCN(C)CC3)c12 (centres undefined)
IC50 ([1]; read-out: IC50): < 100 nM

Cc1nc(C(=O)Nc2cc(-c3ccnc4[nH]ccc34)cc3[nH]ncc23)cs1
pIC50 [1]: >= 5
IC50 [3]: ≤ 1000 nM

COc1ccc(-c2ccc3c(n2)N(C2=NC(=O)C(C)(C)S2)CCO3)cc1OC
IC50 ([1]; read-out: IC50): 27 nM

CC(=O)NCCNS(=O)(=O)c1ccc(-c2sc(NC(C)=O)nc2C)o1
Ki [1]: 100 nM

CC[C@H](Nc1ncnc2[nH]cnc12)c1nc2cccc(F)c2c(=O)n1-c1ccccc1 [IDELALISIB]
Activity [4]: 56%
MTD [5]: 200 mg
MTD [6]: 400 mg

COc1ccc(-c2nn(C)c3nc(N)nc(NCc4ccccc4)c23)cc1F
IC50 ([1]; read-out: IC50): < 2000 nM

Cn1c(C(=O)NCC(F)(F)F)nc2c(N3CCC(n4c(=O)[nH]c5ncccc54)CC3)ncnc21
IC50 ([1]; read-out: IC50): < 50 nM

CC(=O)Nc1nc2ccc(-c3nn(C4CCCC4)c4ncnc(N)c34)cc2s1
IC50 ([1]; read-out: IC50): < 50 nM
INH [7]: < 0.05 µM

CC(=O)Nc1nc2c(s1)-c1c(c(C3CC3)nn1C1CCC(C(=O)N[C@H]3CC[C@H](N4CCCC4)CC3)CC1)CC2 (some centres undefined)
IC50 ([1]; read-out: IC50): < 600 nM

C[C@H](Nc1ncnc2[nH]cnc12)c1nc2ccsc2c(=O)n1-c1ccccc1
IC50 ([1]; read-out: IC50): 6 nM

Nc1ncc(-c2ccc(Cl)c(S(=O)(=O)Nc3ccccc3)c2)nc1C(=O)c1cccnc1
IC50 ([1]; read-out: IC50): 12 nM

Clc1ccc(-c2nc(N3CCOCC3)sc2-c2nnc[nH]2)c(Cl)c1
IC50 ([1]; read-out: IC50): < 100 nM

c1ccc2c(N3CCOCC3)nc(-c3cccc4[nH]ccc34)cc2c1
IC50 ([1]; read-out: IC50): 260 nM

CN1CCOC(C(=O)Nc2cc(-c3cccc4[nH]ccc34)cc3[nH]ncc23)C1 (centres undefined)
pIC50 [1]: >= 5
IC50 [3]: ≤ 1000 nM

C[C@@H](c1nc2ccsc2c(=O)n1-c1ccccc1)n1cnc2c(N)ncnc21
IC50 ([1]; read-out: IC50): 40 nM

OCCn1cnc2c(-n3c(C(F)F)nc4ccccc43)nc(N3CCOCC3)nc21
IC50 ([1]; read-out: IC50): < 30 nM

CCNC(=O)Nc1nc2ccc(-c3cncc(C(F)(F)F)c3)cc2s1
Ki [1]: 10 nM

CC[C@H]1CN(c2sc(-c3nnc[nH]3)c(-c3ccc(Cl)cc3Cl)c2C#N)CCO1
IC50 ([1]; read-out: IC50): < 100 nM

C[C@@H]1C[C@H]2[C@@H]3CCC4=CC(=O)C=C[C@]4(C)[C@@]3(F)[C@@H](O)C[C@]2(C)[C@@]1(O)C(=O)CO [DEXAMETHASONE]
Activity [8]: 70%

Cc1ccc(-c2ccc3c(c2)N(C2=NC4CC(C)(C)NC(=O)C4S2)CCO3)nn1 (centres undefined)
bioavailability [9]: 66%

COc1ccc(-c2cc(-c3ncc(CN4C[C@@H](C)O[C@@H](C)C4)o3)c3cn[nH]c3c2)cc1NS(C)(=O)=O
IC50 ([1]; read-out: pIC50 (converted)): < 100 nM

O=C(CN1CCOCC1)Nc1cc(-c2cc(F)cc3[nH]ccc23)cc2[nH]ncc12
pIC50 [1]: >= 5

C[C@H](Nc1ncnc(N)c1C#N)c1nc2ccc(F)cc2c(NCCS(C)(=O)=O)c1-c1ccccc1
Ki [1]: 2.26 nM

O=C(NCC(=O)N1CCCC1)Nc1nc2ccc(-c3cncc(C(F)(F)F)c3)cn2n1
IC50 ([1]; read-out: IC50): < 100 nM

Cc1cccc2cc(Cn3cnc4c(N)ncnc43)c(N(C)CC3CCCN3C)nc12 (centres undefined)
IC50 ([1]; read-out: IC50): < 50 nM

Cc1ccccc1-n1c(Cn2nc(-c3cc(O)cc(F)c3)c3c(N)ncnc32)nc2scc(C)c2c1=O
IC50 ([1]; read-out: IC50): < 100 nM
IC50 [10]: < 100 nM

CC(c1oc2ccccc2c(=O)c1-c1cccc(F)c1)n1cnc2c(N)ncnc21 (centres undefined)
inhibition [11]: < 25%
IC50 ([1]; read-out: IC50): < 250 nM
inhibition [12]: < 25%
inhibition [13]: < 25%

CC(=O)Nc1ccc(C(=O)NC2=Nc3cc(N4CCOCC4)ccc3C3=NCCN23)cn1
IC50 ([1]; read-out: IC50): < 100 nM

CC(C)N1CCN(Cc2cnc(-c3cc(-c4cccc5[nH]ccc45)cc4[nH]ncc34)o2)CC1 [NEMIRALISIB]
IC50 ([1]; read-out: pIC50 (converted)): < 100 nM

COc1ccc(NC(=O)c2c(C)oc3ncn(CC(C)C)c(=O)c23)cc1
IC50 ([1]; read-out: IC50): 5.9 nM

CS(=O)(=O)N1CCN(Cc2cc3nc(-c4c(F)ccc5[nH]ccc45)nc(N4CCOCC4)c3s2)CC1
IC50 ([1]; read-out: IC50): < 100 nM

Cc1nc2ccccc2n1-c1nc(N2CCOCC2)c2oc(CN3CCN(C(C)(C)C(N)=O)CC3)cc2n1
IC50 [14]: 17.8 nM

CN(C)C1CCN(Cc2cc3nc(-c4cccc5[nH]ccc45)nc(N4CCOCC4)c3s2)CC1
Ki [1]: 4.9 nM
IC50 [14]: 17 nM

CC(C)c1nc2ccccc2n1-c1nc(N2CCOCC2)c2nc(OC3CN(C4CCS(=O)(=O)CC4)C3)n(C)c2n1
IC50 [14]: 3 nM

CC(Nc1ncnc2[nH]cnc12)c1c(C#N)c2ccc(Cl)cc2n1-c1cccc(F)c1 (centres undefined)
IC50 ([1]; read-out: IC50): < 50 nM

CNc1nc(C)c2cc(-c3cc(O)cc(F)c3)ccc2n1
IC50 ([1]; read-out: IC50): < 100 nM

CC(=O)Nc1nc(C)c(-c2csc(C(=O)Nc3nnn[nH]3)n2)s1
IC50 ([1]; read-out: IC50): 13 nM

CCOC(=O)CCNC(=O)Nc1nc2c(s1)CN(c1cnc(Cl)c(OC)c1)CC2
Ki [1]: 3 nM

Cn1cc(-c2ccc3c(c2)N(C2=NC4CC(C)(C)NC(=O)C4S2)CCO3)cn1 (centres undefined)
bioavailability [9]: 97%
clearance [15]: 7 mL/min/kg
IC50 [16]: 111 nM

Cc1oc2ncn(CC(C)C)c(=O)c2c1C(=O)NCc1ccccc1
IC50 ([1]; read-out: IC50): 2100 nM

CC(Nc1ncnc2[nH]cnc12)c1cc(Cl)c2cncn2c1-c1cccc(F)c1 (centres undefined)
IC50 ([1]; read-out: IC50): < 100 nM
IC50 [17]: < 100 nM

COc1cc2c(CC3CCCC(C)C3)c(C(=O)Nc3nn[nH]n3)sc2cc1C (centres undefined)
IC50 ([1]; read-out: IC50): 3 nM

Cc1c(-c2ccccn2)nc2cc(F)cc(F)c2c1Nc1cc(N2CCOCC2)cnc1-c1ccc(O)cc1
Ki [1]: 2.85 nM

Cc1nc(NC(=O)NCCC(=O)OC(C)(C)C)sc1-c1ccc(S(C)(=O)=O)c(F)c1
IC50 ([1]; read-out: IC50): 16 nM

CC(C)(Oc1cccc2[nH]c(-c3nccc(-c4cncc(S(N)(=O)=O)c4)n3)cc12)C(=O)O
inhibition [18]: > 95%

CC(=O)Nc1nc(C)c(-c2ccc(Cl)c(S(=O)(=O)N[C@@H](C)C(=O)OC3CCCC3)c2)s1
IC50 ([1]; read-out: IC50): < 100 nM

Cc1nc(C(=O)Nc2cc(-c3cnc4[nH]nc(S(C)(=O)=O)c4c3)cc3[nH]ncc23)cs1
pIC50 [1]: >= 5

O=C(Nc1cc(-c2cnc3[nH]ncc3c2)cc2[nH]ncc12)c1cccc(CN2CCS(=O)(=O)CC2)n1
pIC50 [1]: >= 5
IC50 [3]: ≤ 10000 nM

CN(C)CCCOc1cccc2c1nc(C(F)F)n2-c1nc(OC2CCN(C(=O)CCl)CC2)nc(N2CCOCC2)n1
IC50 ([1]; read-out: IC50): > 100 nM

C[C@@H]1CN(Cc2nnc(-c3cc(-c4cccc5[nH]ccc45)cc4[nH]ncc34)o2)C[C@H](C)O1
pIC50 [1]: >= 5

Cc1cccn2c(C(C)Nc3ncnc4[nH]cnc34)c(-c3cc(F)cc(F)c3)nc12 (centres undefined)
IC50 ([1]; read-out: IC50): < 200 nM
IC50 [17]: < 500 nM
